# Active and inactive are the calls of the source.
# Columns and labels:
# [1] = target: Bcl-2-like protein 10 (Homo sapiens, UniProt Q9HD36); assay: Bcl-B/TR3 peptide binding disruption – biochemical, fluorescence polarization, FITC-TR3 peptide, selectivity assay for Bfl-1 inhibitor project, primary screen (AID 748);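 further: fluorescence polarization from a fluorescein-labelled TR3 peptide binding purified Bcl-B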
# [2] = A Cell Based Secondary Assay To Explore Cytotoxicity of Compounds that Sensitize Mycobacterium Tuberculosis to Beta-Lactam Antibiotics.; assay type: functional
# [3] = cells
# [4] = target: T1, High affinity choline transporter 1 (Homo sapiens, UniProt Q9GZV3); assay: human choline transporter blockers, potency – cell-based, 10-point CRC, membrane potential dye, dose response (AID 588401); assay type: functional;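 further: membrane potential dye fluorescence of choline-evoked depolarization via CHT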
# T1 sequence (Q9GZV3 whole entry): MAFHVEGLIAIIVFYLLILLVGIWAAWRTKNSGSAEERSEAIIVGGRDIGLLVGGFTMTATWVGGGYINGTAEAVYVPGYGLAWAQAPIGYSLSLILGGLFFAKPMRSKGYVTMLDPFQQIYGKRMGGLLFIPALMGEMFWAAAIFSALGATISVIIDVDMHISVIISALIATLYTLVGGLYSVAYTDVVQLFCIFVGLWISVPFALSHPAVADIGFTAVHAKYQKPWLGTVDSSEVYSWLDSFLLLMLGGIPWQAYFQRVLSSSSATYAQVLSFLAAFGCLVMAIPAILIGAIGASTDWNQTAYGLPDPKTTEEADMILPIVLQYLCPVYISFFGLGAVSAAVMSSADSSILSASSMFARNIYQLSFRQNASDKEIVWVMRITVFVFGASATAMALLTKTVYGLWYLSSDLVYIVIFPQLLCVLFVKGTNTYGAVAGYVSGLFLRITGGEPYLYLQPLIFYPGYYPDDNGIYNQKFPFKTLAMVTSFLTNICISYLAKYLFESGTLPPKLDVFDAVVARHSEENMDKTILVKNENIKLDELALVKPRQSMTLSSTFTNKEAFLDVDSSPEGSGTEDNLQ
# [5] = target: T1, High affinity choline transporter 1; assay: human choline transporter blockers, potency – cell-based, 5-point CRC, membrane potential dye, dose response (AID 504840); assay type: functional
# [6] = viability of uninfected HEp-2 cells – cell-based, HTS, cytotoxicity control for RSV inhibitor project, dose response (AID 2410); assay type: functional; conditions: human respiratory syncytial virus
# [7] = target: Transitional endoplasmic reticulum ATPase (Homo sapiens, UniProt P55072); assay: p97 ATPase inhibitors, dose response, biochemical (AID 1534)
# Sequence of Transitional endoplasmic reticulum ATPase (Homo sapiens, UniProt P55072) (P55072 whole entry): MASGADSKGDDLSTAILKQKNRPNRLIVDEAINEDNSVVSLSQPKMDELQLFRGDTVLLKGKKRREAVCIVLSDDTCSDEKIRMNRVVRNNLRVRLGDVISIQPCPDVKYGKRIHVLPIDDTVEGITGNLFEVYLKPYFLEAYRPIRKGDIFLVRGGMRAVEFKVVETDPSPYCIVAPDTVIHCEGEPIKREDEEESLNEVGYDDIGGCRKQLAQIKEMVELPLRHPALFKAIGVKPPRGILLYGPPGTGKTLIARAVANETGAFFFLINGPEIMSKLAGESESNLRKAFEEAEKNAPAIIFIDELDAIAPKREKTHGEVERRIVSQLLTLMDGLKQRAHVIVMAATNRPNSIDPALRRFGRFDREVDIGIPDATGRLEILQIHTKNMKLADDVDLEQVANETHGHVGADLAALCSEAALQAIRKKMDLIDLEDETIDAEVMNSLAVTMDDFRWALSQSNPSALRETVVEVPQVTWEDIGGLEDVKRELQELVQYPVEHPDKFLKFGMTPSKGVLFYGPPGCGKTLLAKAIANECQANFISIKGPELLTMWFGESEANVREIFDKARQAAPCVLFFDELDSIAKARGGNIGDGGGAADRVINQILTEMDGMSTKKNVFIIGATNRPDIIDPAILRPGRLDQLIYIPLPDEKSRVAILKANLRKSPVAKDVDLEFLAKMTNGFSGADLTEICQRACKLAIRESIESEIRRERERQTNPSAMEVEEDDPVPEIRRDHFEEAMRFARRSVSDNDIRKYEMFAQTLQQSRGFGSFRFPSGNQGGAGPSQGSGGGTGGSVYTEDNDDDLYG
# [8] = target: Transitional endoplasmic reticulum ATPase (Homo sapiens, UniProt P55072, C522A); assay: C522A mutant p97 ATPase inhibitors, dose response, counter-screen for p97 inhibitor project, biochemical, luminescence (AID 1544)
# Sequence of Transitional endoplasmic reticulum ATPase (Homo sapiens, UniProt P55072, C522A) (P55072 2-806 C522A limits assumed): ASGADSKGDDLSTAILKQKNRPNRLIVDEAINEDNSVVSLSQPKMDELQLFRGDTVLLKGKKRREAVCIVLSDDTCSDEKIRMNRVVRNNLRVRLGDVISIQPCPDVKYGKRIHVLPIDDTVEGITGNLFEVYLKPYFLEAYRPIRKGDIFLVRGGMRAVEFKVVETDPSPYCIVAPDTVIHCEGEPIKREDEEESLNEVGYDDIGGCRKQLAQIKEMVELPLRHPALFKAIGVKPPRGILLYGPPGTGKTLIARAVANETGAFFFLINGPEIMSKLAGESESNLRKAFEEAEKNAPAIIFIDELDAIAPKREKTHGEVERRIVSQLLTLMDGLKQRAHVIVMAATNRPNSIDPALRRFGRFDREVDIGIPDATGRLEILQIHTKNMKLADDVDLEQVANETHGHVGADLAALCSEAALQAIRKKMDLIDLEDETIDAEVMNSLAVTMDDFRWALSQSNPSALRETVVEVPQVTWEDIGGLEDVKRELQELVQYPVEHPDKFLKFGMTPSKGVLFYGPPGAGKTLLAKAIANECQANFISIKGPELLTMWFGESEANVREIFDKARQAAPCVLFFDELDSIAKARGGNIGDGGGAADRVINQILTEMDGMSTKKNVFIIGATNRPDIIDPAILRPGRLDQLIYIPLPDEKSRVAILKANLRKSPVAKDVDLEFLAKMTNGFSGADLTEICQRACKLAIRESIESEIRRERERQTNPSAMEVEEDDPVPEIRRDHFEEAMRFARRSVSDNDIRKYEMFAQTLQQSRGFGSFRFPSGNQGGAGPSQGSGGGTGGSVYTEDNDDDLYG
# [9] = target: T2, Mannose-6-phosphate isomerase (Homo sapiens, UniProt P34949); assay: MPI inhibition at elevated mannose 6-phosphate – biochemical, fluorescence intensity, high mannose 6-phosphate, primary screen (AID 1220)
# T2 sequence (P34949 whole entry): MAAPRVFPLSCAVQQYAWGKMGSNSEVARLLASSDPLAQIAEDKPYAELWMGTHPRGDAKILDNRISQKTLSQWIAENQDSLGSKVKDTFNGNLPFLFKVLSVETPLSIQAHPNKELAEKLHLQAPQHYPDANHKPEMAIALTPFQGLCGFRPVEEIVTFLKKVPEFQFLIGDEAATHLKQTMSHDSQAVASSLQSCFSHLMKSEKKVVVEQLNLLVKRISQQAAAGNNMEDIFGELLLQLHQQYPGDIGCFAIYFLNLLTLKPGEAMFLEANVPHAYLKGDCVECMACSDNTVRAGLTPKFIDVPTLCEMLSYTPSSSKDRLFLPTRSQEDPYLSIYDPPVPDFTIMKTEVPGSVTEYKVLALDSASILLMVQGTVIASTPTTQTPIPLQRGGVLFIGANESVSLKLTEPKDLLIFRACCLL
# [10] = target: T2, Mannose-6-phosphate isomerase; assay: MPI enzyme activity inhibition – biochemical, fluorescence intensity, coupled assay, primary screen (AID 1209)
# [11] = target: T3, Hexokinase HKDC1 (Homo sapiens, UniProt Q2TB90); assay: inhibition of HKDC1 glucose phosphorylation – biochemical, W721R variant, dose response (AID 504729); assay type: functional
# T3 sequence (Q2TB90 whole entry): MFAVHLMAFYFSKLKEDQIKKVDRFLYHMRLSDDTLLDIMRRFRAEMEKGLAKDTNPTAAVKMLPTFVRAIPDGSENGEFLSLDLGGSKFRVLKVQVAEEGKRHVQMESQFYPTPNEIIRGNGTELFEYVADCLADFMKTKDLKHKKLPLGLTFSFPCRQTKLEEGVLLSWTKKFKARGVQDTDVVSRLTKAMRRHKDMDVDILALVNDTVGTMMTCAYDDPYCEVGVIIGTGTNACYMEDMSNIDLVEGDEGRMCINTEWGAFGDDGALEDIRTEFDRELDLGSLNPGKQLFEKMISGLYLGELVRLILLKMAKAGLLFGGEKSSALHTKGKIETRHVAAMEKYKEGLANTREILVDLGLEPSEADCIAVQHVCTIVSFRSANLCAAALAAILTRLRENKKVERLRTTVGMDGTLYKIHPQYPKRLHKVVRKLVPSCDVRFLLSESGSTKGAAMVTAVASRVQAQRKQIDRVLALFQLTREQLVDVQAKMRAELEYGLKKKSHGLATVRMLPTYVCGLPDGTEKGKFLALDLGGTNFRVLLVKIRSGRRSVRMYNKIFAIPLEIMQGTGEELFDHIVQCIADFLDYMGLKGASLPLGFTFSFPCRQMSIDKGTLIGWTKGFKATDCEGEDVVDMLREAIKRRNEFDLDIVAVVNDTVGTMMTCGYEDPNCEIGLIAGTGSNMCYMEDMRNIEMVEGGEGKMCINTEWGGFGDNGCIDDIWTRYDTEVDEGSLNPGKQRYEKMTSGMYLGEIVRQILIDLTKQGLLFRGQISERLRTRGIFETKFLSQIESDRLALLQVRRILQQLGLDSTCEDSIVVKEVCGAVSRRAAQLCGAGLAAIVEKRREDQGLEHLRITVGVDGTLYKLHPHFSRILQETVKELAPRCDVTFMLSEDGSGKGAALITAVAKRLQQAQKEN
# [12] = target: T4, Eukaryotic translation initiation factor 2-alpha kinase 3 (Homo sapiens, UniProt Q9NZJ5); assay: Counterscreen assay for PERK inhibitors: Dose response cell-based high throughput screening assay to measure inhibition of PERK at 6 hours. [Related pubchem assays: 1522, 1416 ]; assay type: functional
# T4 sequence (Q9NZJ5 whole entry): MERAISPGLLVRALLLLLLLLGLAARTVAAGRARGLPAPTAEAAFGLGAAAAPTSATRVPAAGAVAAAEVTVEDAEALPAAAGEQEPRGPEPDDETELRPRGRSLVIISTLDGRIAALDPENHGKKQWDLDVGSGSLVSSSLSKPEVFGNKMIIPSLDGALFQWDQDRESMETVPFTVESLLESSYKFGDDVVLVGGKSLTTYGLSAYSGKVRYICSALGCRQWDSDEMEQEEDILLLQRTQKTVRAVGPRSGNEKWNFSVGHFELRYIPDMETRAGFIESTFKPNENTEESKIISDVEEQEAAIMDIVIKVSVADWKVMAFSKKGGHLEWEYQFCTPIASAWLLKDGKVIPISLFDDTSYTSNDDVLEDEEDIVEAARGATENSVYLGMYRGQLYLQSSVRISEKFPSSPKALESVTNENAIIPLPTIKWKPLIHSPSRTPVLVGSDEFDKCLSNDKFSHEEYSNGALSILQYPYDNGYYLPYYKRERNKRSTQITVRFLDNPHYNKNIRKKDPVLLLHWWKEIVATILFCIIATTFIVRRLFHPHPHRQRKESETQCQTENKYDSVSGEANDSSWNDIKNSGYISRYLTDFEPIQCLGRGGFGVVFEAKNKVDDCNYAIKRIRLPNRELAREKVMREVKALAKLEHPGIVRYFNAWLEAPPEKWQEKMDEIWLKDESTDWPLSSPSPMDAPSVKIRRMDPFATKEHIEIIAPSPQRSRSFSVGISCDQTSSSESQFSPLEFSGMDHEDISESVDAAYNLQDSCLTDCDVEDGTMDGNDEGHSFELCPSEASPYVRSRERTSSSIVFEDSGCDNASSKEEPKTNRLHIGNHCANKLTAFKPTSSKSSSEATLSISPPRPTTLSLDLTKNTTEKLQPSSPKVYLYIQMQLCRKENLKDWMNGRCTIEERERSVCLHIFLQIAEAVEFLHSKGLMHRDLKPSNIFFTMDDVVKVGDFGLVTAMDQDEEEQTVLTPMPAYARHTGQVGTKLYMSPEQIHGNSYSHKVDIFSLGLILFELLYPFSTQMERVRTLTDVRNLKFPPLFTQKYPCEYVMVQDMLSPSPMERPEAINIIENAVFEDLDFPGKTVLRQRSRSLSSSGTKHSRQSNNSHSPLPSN
# [13] = target: T4, Eukaryotic translation initiation factor 2-alpha kinase 3; assay: Dose response cell-based high-throughput screening assay to measure PERK inhibition. [Related pubchem assays: 1416 ]; assay type: functional
# [14] = mRNA 3' processing disruption, beta-gal signal increase – luminescence, S. cerevisiae SKY197-pL101, dose response (AID 2525); assay type: functional, cell-based
# [15] = Luminescence Cell-Based Dose Confirmation HTS to Identify Inhibitors of Polyadenylation.; assay type: functional
# [16] = target: T5, Estrogen receptor beta (Homo sapiens, UniProt Q92731);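 further: recombinant ER-beta bound to coactivator SRC1 peptide in presence of estradiol agonist; inhibitors block coactivator peptide binding and lower the FRET signal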
# T5 sequence (Q92731 whole entry): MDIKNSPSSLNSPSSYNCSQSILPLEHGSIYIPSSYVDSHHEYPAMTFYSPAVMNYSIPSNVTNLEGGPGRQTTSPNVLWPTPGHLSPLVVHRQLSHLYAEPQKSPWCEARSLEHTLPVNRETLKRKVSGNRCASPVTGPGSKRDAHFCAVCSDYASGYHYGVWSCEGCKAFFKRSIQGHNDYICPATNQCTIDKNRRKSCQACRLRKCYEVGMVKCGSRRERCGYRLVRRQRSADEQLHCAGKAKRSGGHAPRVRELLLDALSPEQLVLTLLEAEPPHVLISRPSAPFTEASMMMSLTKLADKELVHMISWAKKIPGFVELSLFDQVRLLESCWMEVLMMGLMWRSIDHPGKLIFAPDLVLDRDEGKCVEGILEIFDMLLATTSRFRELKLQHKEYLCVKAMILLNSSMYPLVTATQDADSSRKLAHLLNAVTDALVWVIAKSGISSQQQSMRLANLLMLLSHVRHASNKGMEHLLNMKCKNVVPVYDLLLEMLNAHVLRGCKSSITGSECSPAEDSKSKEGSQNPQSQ
# [17] = target: T6, Estrogen receptor (Homo sapiens, UniProt P03372);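 further: potency for inhibiting coactivator peptide recruitment to the receptor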
# T6 sequence (P03372 whole entry): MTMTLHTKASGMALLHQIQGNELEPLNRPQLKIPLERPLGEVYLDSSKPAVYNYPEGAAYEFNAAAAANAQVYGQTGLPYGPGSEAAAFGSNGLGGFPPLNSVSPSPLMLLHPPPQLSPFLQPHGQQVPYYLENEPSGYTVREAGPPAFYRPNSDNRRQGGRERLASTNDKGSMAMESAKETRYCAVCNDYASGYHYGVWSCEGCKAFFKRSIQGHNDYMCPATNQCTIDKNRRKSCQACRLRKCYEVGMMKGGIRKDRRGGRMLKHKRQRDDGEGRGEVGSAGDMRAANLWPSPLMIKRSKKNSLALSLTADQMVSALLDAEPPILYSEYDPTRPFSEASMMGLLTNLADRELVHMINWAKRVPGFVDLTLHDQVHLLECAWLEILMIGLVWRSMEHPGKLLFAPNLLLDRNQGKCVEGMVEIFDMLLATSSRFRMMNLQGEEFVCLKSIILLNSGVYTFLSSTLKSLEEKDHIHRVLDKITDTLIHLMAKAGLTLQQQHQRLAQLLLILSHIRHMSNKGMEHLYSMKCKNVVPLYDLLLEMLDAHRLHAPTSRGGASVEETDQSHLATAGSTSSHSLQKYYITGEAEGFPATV
# [18] = target: T5, Estrogen receptor beta; assay: blockers of SRC-3 recruitment to ERβ – biochemical, ELISA, streptavidin-HRP readout, orthogonal assay, confirmation (AID 1060)
# [19] = target: T7, Rac GTPase-activating protein 1 (Homo sapiens, UniProt Q9H0H5); assay: blockers of MgcRacGAP-driven Rac1 GTP hydrolysis – biochemical, ADP Hunter fluorescence, primary and confirmatory, confirmation (AID 624330); assay type: functional
# T7 sequence (Q9H0H5 whole entry): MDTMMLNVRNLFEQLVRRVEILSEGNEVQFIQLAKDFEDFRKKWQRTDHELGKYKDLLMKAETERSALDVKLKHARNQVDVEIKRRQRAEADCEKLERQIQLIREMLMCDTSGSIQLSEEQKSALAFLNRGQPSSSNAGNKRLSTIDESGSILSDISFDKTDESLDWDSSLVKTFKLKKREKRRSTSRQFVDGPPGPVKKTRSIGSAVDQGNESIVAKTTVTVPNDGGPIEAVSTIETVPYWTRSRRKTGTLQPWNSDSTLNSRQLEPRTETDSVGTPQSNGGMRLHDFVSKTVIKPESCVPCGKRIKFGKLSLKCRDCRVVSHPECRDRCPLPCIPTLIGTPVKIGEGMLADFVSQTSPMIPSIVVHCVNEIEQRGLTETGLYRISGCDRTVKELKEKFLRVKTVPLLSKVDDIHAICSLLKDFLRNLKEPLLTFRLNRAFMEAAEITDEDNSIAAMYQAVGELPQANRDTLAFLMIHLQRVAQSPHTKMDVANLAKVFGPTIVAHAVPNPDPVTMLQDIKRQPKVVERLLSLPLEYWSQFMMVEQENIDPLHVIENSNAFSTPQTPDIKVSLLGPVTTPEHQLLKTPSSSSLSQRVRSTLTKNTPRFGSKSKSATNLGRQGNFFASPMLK
# Sequence of Bcl-2-like protein 10 (Q9HD36 whole entry): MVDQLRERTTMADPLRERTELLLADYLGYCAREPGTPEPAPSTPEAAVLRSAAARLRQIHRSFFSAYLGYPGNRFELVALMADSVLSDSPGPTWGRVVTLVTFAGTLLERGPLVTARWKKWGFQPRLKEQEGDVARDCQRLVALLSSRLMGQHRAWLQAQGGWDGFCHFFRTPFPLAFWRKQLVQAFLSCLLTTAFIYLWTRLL
structure (smiles),measurement,setting,value
COc1ccc(NC(=O)C2CCN(c3nc(C)nc4c3CCC4)CC2)cc1,IC50,[1],33.8 µM (active)
Cc1cccc(-n2nc([N+](=O)[O-])c(NC3CCN(Cc4ccccc4)CC3)[n+]2[O-])c1,CC50,[2],> 40 µM (active)
CC(=O)Oc1cc2c3c(c1)/C(=C1/SC(=S)NC1=O)C(=O)N3C(C)(C)C=C2C,IC50,[3],12.5 µM (active)
same,IC50,[4],6.48 µM (active)
same,IC50,[5],1.21 µM (active)
same,CC50,[6],14.3 µM (active)
same,IC50,[7],> 50 µM (not active)
same,IC50,[8],> 50 µM (not active)
Cc1ccc(-n2c(N)c(C(N)=O)sc2=S)c(C)c1,IC50,[9],> 50 µM (not active)
same,IC50,[10],> 50 µM (not active)
CCc1nc2sc3c(O)ncnc3c2c2c1CSC(C)(C)C2,IC50,[11],26 µM (inactive)
COc1ccc(-c2csc(NC(=O)CSc3nc(C)cs3)n2)cc1,EC50,[12],> 55.7 µM (not active)
same,EC50,[13],> 55.7 µM (not active)
CC(=O)c1cc2c(cc1N)OCO2,EC50,[12],> 55.7 µM (not active)
same,EC50,[13],> 55.7 µM (not active)
CCN(CC)c1ccc(NC(=O)c2cc(Cl)ccc2OC)cc1,CC50,[2],> 40 µM (active)
Cc1ccc(Nc2c(-c3ccc(C)o3)nc3ncccn23)cc1,EC50,[14],> 500 µM (not active)
same,EC50,[15],11.6 µM (active)
O=C(CSc1nnc(-c2ccc(OC(F)F)cc2)o1)NC(=O)NCc1ccco1,IC50,[16],15.9 µM (active)
same,IC50,[17],11.6 µM (active)
same,IC50,[18],> 109 µM (not active)
Cc1ccc(-c2nn3c(C)nnc3s2)cc1NC(=O)CSc1ccc(Cl)cc1,EC50,[14],3.08 µM (active)
same,EC50,[15],24.7 µM (active)
CC(=O)Oc1ccc2c(=O)c(Oc3ccccc3)coc2c1OC(C)=O,IC50,[19],108 µM (active)
same,IC50,[10],> 50 µM (not active)

# Reference: ChEMBL document CHEMBL1201862, “PubChem BioAssay data set” (2004)
